The subject of assay [1] is Escherichia coli. As to the kind of experiment: Antibacterial activity against Escherichia coli NCTC 9001 at 200 ug/ml. In kind it is functional, organism-based.
Assay [2] relates to Enterococcus faecalis. As to the kind of experiment: Antibacterial activity against Streptococcus faecalis NCTC 775. It counts as functional.
In assay [3] the test system is Pseudomonas aeruginosa. In words: Antibacterial activity against Pseudomonas aeruginosa NCTC 6750 at 200 ug/ml. In kind it is functional, organism-based.
The test system of assay [4] is Bacillus subtilis. In words: Antibacterial activity against Bacillus subtilis NCTC 10452. In kind it is functional.
Assay [5] deals with Bacillus pumilus. As to the kind of experiment: Antibacterial activity against Bacillus pumilus NCTC 10327. In kind it is functional.
Assay [6] concerns Staphylococcus aureus. In words: Antibacterial activity against Staphylococcus aureus NCTC 6571. In kind it is functional.

Converted amounts (≈) assume the structure as drawn. The source made the active and inactive calls. No cut-off for these calls is given here.

As usually defined, the MIC is the lowest concentration that inhibits growth of the organism. Read a high MIC as weaker potency. Take `C=C(CC[C@@H]1C(C)(C)CCC[C@]1(C)O)C(C)=O`: the result in assay [1] and in assay [3] was inactive. Moreover, the MIC was determined as 150 µg/mL (≈ 629 µM) in assay [2], 100 µg/mL (≈ 420 µM) in assay [4], 50 µg/mL (≈ 210 µM) in assay [5] and 50 µg/mL (≈ 210 µM) in assay [6].
Consider `CN[C@@H]1[C@H](O[C@H]2[C@H](O[C@H]3[C@H](O)[C@@H](O)[C@H](N=C(N)N)[C@@H](O)[C@@H]3N=C(N)N)O[C@@H](C)[C@]2(O)C=O)O[C@@H](CO)[C@H](O)[C@H]1O.CN[C@@H]1[C@H](O[C@H]2[C@H](O[C@H]3[C@H](O)[C@@H](O)[C@H](N=C(N)N)[C@@H](O)[C@@H]3N=C(N)N)O[C@@H](C)[C@]2(O)C=O)O[C@@H](CO)[C@H](O)[C@H]1O.O=S(=O)(O)O.O=S(=O)(O)O.O=S(=O)(O)O` [STREPTOMYCIN SULFATE], for which the MIC came to 15 µg/mL in assay [2], 3.75 µg/mL in assay [4], 0.94 µg/mL in assay [5] and 3.75 µg/mL in assay [6].

For the origin of these results see ChEMBL document CHEMBL1147336, “A new antibacterial sesquiterpene from Premna oligotricha” (1993).
